{"source": "patent US20090306080A1", "about": "“VETERINARY FORMULATION” (priority 2006, published 2009)", "assay_type": "physicochemical", "conditions": "pH 7", "text": "The solubility of cyromazine in a range of organic solvents including solvents which are commonly used in topical spray-on formulations is shown in the table below.", "data": [{"smiles": "Nc1nc(N)nc(NC2CC2)n1", "note": "[cyromazine, 2-cyclopropyl-amino-4,6-diamino-s-triazine]", "values": [{"measurement": "Solubility (g/kg) at 20° C.", "value": "1.3 (pH 7) g/kg"}]}]}
